Data from paper PMC5666424, “Marine-Derived 2-Aminoimidazolone Alkaloids. Leucettamine B-Related Polyandrocarpamines Inhibit Mammalian and Protozoan DYRK & CLK Kinases” (Marine Drugs, 2017).
Where two headings read alike, the source gives them in different places.

Experiments:
Experiment in all cases: Protein kinase assay
CK1δ/ε = format: biochemical, porcine; details: 15 μmol/L ATP
Method: (§1) CK1δ/ε (porcine brain, native) and LmCK1 (leishmania major, recombinant, expressed in E. coli as HIS fusion proteins) was assayed as described for CDK1 but in buffer C and using 25 μM CKS peptide ([…]pSAYSITA), a CK1-specific substrate.

DYRK1B = DYRK1B (Homo sapiens, UniProt Q9Y463); format: biochemical; details: 15 μmol/L ATP
Sequence of DYRK1B (Q9Y463 whole entry): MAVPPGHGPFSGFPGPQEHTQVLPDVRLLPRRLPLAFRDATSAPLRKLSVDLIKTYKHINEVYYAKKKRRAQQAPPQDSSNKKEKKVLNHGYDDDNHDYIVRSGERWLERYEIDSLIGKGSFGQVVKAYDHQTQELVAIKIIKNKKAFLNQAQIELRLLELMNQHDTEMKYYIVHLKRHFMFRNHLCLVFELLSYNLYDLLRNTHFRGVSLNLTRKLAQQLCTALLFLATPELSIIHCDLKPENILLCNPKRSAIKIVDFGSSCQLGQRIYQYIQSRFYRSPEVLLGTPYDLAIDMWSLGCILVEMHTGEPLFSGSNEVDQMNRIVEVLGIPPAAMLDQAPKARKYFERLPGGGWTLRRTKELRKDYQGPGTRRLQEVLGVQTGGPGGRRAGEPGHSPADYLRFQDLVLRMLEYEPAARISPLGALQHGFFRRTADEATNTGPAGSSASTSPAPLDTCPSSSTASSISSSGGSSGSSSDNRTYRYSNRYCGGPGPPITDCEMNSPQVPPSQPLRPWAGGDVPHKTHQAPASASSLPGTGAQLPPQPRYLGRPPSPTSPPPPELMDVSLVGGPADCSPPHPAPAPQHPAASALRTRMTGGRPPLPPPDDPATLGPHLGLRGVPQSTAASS

CDK2/cyclin A = molecular target: T1, CDK2/cyclin A (Homo sapiens, UniProt P24941); format: biochemical; details: 15 μmol/L ATP; read-out: IC50 CDK2/cyclin A
T1 construct: made in house

GSK-3α/β = format: biochemical, porcine; details: 15 μmol/L ATP
CDK9/cyclin T = CDK9/cyclin T (Homo sapiens, UniProt P50750); details: 15 μmol/L ATP
Sequence of CDK9/cyclin T (P50750 whole entry): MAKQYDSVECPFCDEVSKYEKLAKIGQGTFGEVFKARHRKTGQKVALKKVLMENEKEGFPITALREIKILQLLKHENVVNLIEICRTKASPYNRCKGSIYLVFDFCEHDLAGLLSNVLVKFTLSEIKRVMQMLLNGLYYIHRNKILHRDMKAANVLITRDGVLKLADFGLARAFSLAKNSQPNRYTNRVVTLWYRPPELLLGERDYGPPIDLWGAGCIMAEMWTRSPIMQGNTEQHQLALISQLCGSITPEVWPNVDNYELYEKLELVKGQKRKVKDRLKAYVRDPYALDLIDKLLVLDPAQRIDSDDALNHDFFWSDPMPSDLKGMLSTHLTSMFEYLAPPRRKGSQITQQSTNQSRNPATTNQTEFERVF
Sequence of CDK9/cyclin T (O60563 whole entry partner): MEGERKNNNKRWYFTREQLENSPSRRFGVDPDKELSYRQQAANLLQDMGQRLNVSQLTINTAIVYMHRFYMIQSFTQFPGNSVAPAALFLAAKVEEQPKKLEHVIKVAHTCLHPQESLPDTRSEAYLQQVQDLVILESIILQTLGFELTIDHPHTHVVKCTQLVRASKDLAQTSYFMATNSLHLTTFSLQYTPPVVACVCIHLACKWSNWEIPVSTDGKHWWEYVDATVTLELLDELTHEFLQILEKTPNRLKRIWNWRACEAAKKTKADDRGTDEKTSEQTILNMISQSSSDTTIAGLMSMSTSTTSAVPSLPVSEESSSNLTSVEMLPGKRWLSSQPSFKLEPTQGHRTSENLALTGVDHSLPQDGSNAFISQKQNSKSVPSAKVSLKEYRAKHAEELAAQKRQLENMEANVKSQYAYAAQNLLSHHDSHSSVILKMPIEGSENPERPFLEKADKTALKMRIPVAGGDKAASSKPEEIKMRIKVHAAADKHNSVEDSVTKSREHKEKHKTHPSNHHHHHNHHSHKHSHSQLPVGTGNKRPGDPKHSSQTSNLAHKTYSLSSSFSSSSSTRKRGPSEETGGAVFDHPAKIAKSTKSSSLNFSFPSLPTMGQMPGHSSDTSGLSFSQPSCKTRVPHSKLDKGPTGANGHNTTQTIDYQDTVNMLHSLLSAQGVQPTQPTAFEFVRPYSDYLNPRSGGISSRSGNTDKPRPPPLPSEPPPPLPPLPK

DYRK1A = DYRK1A (Homo sapiens, UniProt Q13627); format: biochemical; details: 15 μmol/L ATP
PfGSK-3 = molecular target: T2, PfGSK-3 (Plasmodium falciparum, UniProt O77344); format: biochemical; details: 15 μmol/L ATP; read-out: IC50 PfGSK-3
T2 sequence (O77344 1-440): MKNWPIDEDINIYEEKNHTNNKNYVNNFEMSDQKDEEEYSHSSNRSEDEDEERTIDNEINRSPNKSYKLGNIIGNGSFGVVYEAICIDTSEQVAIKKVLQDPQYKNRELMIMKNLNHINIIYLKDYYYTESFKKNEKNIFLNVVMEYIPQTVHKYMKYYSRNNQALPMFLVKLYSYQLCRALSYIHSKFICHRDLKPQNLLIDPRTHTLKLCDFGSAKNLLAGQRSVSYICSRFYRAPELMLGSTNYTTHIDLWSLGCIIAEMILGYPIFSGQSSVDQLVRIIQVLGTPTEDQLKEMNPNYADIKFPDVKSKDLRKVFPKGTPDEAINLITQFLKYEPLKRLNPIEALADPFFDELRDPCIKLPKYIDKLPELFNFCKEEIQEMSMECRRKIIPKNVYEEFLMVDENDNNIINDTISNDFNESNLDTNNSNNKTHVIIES
Method: The parasitic kinase genes (Supplementary Data, Table S3) were optimized for expression in E. coli, synthesized, and cloned in pGEX-6P-1 (GE Healthcare, Sigma-Aldrich, St. Quentin Fallavier, France) with the type II restriction enzymes BamHI and XhoI for glutathione S-transferase (GST) fusion at the N-terminus (GenScript). Plasmids were transformed into chemically competent E. coli BL21(DE3), which were grown overnight at 37 °C in 2 × YT medium containing 100 μg/mL ampicillin. These cultures were used to inoculate 1 L volumes of 2 × YT medium (containing 100 μg/mL ampicillin) in 5 L flasks. The cultures were allowed to grow at 37 °C before the temperature was decreased to 18 °C. At an optical density at 600 nm (OD600) of about 1.0, protein expression was induced overnight at 18 °C with 0.1 mM isopropyl β-D-1-thiogalactopyranoside (IPTG). The bacteria were harvested by centrifugation and were frozen at −20 °C.
Cells were resuspended in a lysis buffer (PBS pH 7.4, 1% NP40, 1 mM DTT, 1 mM EDTA, 1 mM PMSF) in the presence of protease inhibitor cocktail (Roche), and lysozyme was added to 1 mg/mL and incubated 1 h at 4 °C with gentle agitation. Cells were then sonicated on ice before 6 mM MgCl2 and 25 U/mL benzonase (Novagen, Merck Millipore, Fontenay sous Bois, France) were added to degrade nucleic acids and decrease sample viscosity. After centrifugation at 4 °C, the soluble fraction was collected and proteins were bound to Glutathione sepharose 4B beads (GE Healthcare). Beads were washed three times with lysis buffer and once with modified buffer C (25 mM MOPS pH 7.0, 60 mM β-glycerophosphate, 15 mM p-nitrophenylphosphate, 15 mM EGTA, 15 mM MgCl2, 2 mM DTT, 1 mM sodium vanadate). Proteins were eluted with elution buffer (buffer C containing 30 mM reduced glutathione, 15% glycerol, and pH adjusted to 8.5).

CLK3 = CLK3 (Mus musculus, UniProt O35492)
Sequence of CLK3 (O35492 whole entry): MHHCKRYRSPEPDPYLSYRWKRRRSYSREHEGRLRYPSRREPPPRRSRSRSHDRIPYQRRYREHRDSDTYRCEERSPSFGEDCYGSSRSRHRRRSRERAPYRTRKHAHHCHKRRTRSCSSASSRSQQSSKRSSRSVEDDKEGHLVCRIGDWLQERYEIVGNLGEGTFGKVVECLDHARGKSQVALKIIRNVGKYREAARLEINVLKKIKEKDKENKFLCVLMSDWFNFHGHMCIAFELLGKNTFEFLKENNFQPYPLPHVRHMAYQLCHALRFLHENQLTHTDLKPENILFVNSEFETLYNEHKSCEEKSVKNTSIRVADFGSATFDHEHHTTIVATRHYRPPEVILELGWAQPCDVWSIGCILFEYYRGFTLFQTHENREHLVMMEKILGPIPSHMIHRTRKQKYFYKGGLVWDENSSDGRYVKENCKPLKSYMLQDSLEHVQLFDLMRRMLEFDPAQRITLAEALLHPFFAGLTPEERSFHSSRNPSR

CDK5/p25 = molecular target: T3, CDK5/p25 (Homo sapiens, UniProt Q00535); format: biochemical; details: 15 μmol/L ATP; read-out: IC50 CDK5/p25
T3 construct: made in house
T3 sequence (Q00535 whole entry): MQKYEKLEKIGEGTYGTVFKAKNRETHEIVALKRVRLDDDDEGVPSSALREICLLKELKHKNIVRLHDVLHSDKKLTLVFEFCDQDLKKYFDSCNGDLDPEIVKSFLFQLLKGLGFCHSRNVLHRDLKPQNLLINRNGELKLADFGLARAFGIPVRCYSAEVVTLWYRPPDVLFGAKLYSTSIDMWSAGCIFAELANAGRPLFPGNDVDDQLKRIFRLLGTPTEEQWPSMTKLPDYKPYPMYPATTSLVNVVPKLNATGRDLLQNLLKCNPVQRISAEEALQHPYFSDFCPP
T3 sequence (Q15078 99-307 partner limits assumed): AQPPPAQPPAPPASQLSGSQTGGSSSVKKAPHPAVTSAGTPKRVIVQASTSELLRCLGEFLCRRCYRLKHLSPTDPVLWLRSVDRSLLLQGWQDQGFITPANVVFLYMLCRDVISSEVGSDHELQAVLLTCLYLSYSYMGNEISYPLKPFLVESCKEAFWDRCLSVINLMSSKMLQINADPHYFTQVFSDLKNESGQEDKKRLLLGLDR

DYRK3 = molecular target: T4, DYRK3 (Homo sapiens, UniProt O43781); format: biochemical; details: 15 μmol/L ATP; read-out: IC50 DYRK3
T4 sequence (O43781 1-588): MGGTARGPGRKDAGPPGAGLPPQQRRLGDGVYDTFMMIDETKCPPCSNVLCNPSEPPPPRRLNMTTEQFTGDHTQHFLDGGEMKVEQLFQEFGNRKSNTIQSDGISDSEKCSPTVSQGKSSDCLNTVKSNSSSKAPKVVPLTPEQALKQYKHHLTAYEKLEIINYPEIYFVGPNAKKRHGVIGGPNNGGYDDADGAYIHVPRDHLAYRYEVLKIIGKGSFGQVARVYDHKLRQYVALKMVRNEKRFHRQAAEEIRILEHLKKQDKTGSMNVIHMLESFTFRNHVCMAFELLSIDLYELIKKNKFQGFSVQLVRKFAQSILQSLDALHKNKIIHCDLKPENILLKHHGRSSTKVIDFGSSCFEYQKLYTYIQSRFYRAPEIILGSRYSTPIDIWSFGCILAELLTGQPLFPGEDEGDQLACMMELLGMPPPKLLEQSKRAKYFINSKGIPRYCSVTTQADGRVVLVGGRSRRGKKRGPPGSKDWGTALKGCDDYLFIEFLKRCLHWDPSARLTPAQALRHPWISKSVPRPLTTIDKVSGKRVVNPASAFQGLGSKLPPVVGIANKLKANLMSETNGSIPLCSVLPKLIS

CLK2 = CLK2 (Mus musculus, UniProt O35491)
Sequence of CLK2 (O35491 whole entry): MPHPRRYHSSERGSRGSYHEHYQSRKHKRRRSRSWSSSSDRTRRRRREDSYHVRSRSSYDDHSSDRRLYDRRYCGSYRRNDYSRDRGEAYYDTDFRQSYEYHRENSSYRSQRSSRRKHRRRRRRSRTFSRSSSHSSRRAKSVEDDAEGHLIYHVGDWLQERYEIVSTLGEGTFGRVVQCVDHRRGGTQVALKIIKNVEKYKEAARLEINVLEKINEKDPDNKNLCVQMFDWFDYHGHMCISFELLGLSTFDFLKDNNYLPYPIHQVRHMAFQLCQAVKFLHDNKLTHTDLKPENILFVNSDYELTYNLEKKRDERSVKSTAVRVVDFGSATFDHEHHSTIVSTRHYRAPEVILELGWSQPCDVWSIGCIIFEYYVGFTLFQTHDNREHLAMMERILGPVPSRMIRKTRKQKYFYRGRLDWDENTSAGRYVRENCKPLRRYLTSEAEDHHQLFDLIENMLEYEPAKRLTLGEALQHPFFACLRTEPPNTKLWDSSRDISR

CDK1/cyclin B = format: biochemical, starfish; details: 15 μmol/L ATP
DYRK2 = molecular target: T5, DYRK2 (Homo sapiens, UniProt Q92630); format: biochemical; details: 15 μmol/L ATP; read-out: IC50 DYRK2
T5 sequence (Q92630 1-601): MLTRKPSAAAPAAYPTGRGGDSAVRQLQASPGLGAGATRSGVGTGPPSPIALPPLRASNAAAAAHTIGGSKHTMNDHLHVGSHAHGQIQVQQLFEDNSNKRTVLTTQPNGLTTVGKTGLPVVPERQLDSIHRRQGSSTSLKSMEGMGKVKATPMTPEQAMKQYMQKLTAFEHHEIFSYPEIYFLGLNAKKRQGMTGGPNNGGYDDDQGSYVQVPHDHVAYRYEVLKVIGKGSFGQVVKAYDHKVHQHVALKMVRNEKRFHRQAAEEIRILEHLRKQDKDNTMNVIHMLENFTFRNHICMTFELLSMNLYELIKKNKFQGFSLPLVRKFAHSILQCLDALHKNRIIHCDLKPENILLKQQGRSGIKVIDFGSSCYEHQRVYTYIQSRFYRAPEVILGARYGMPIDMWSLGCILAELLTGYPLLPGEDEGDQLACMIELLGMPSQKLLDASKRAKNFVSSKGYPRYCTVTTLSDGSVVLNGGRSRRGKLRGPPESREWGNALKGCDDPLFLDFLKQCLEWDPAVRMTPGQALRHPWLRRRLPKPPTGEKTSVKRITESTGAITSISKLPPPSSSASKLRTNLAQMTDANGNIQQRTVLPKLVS

LmCK1 = LmCK1 (Leishmania major, UniProt Q9NHE1); format: biochemical; details: 15 μmol/L ATP; read-out: IC50 LmCK1
Sequence of LmCK1 (Q9NHE1 entry or part of it): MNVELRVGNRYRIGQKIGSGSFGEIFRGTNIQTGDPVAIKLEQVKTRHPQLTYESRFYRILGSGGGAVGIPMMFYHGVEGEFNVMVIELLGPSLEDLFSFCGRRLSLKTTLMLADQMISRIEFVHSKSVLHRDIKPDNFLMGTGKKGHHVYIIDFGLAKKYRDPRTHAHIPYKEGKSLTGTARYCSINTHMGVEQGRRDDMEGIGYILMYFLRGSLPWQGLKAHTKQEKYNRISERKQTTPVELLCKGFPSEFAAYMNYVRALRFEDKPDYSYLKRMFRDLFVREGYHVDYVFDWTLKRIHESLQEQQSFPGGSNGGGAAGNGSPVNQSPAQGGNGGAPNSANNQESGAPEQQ
Method: as §1

CLK1 = CLK1 (Mus musculus, UniProt P22518); details: read-out: IC50 CLK1; 15 μmol/L ATP
Sequence of CLK1 (P22518 whole entry): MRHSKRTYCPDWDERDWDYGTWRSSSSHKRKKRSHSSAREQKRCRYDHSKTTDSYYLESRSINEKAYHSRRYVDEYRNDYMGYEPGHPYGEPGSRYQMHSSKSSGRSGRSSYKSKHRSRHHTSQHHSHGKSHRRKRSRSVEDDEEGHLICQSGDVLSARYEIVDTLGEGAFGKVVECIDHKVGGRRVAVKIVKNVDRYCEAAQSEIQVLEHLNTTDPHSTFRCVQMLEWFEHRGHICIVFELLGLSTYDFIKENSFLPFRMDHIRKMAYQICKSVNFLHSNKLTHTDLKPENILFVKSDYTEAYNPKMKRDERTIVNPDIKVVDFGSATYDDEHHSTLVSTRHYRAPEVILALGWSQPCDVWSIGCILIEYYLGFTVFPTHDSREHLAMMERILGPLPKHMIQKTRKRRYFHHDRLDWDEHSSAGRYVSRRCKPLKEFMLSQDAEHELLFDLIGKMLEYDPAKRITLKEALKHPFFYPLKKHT

CLK4 = CLK4 (Mus musculus, UniProt O35493)
Sequence of CLK4 (O35493 whole entry): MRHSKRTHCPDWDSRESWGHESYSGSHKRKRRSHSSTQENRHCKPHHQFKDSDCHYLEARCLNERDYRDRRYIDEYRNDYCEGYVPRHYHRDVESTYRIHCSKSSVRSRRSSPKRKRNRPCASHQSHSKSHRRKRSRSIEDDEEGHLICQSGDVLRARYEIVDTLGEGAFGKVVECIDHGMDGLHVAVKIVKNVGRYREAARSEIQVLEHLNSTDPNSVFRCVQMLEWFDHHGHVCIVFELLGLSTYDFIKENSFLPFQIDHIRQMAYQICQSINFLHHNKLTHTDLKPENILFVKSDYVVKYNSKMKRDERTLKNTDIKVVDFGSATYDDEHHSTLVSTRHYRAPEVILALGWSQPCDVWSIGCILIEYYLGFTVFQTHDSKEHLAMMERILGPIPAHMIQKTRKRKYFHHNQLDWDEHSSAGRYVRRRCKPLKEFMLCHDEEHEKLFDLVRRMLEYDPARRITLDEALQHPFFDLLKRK

[1] = read-out: IC50 CLK3, 15 μmol/L ATP
[2] = read-out: IC50 CLK2, 15 μmol/L ATP
[3] = read-out: IC50 CLK4, 15 μmol/L ATP

| SMILES | IC50 (CK1δ/ε) | IC50 (DYRK1B) | IC50 (CDK2/cyclin A) | IC50 (GSK-3α/β) | IC50 (CDK9/cyclin T; read-out: IC50 CDK9/cyclin T) | IC50 (DYRK1A) | IC50 (PfGSK-3) | IC50 (CLK3; [1]) | IC50 (CDK5/p25) | IC50 (DYRK3) | IC50 (CLK2; [2]) | IC50 (CDK1/cyclin B) | IC50 (DYRK2) | IC50 (LmCK1) | IC50 (CLK1) | IC50 (CLK4; [3]) | IC50 (CDK9/cyclin T; IC50 CDK9/cyclin T) | IC50 (CLK3; IC50 CLK3, 15 μmol/L ATP) | IC50 (CLK2; IC50 CLK2, 15 μmol/L ATP) | IC50 (CLK4; IC50 CLK4, 15 μmol/L ATP) |
| --- | --- | --- | --- | --- | --- | --- | --- | --- | --- | --- | --- | --- | --- | --- | --- | --- | --- | --- | --- | --- |
| NC1=NC(=Cc2cc(Br)cs2)C(=O)N1 [PAC11] | > 10 µM | 6.2 µM | > 10 µM | 2 µM | > 10 µM | 2.1 µM | > 10 µM | > 10 µM | > 10 µM | 2.4 µM | ≥ 10 µM | > 10 µM | 1.3 µM | > 10 µM | 4.2 µM | 3.2 µM | – | – | – | – |
| NC1=NC(=Cc2ccccc2N2CCOCC2)C(=O)N1 [PAC7] | > 10 µM | > 10 µM | > 10 µM | > 10 µM | > 10 µM | > 10 µM | > 10 µM | > 10 µM | > 10 µM | > 10 µM | > 10 µM | > 10 µM | > 10 µM | > 10 µM | > 10 µM | > 10 µM | – | – | – | – |
| NC1=NC(=Cc2ccc(-n3ccnc3)cc2)C(=O)N1 [PAC8] | > 10 µM | > 10 µM | > 10 µM | > 10 µM | 0.51 µM | > 10 µM | > 10 µM | > 10 µM | > 10 µM | > 10 µM | > 10 µM | > 10 µM | > 10 µM | > 10 µM | > 10 µM | > 10 µM | – | – | – | – |
| NC1=N/C(=C\c2ccc(O)c(O)c2)C(=O)N1 [PAC2, polyandrocarpamine B] | – | 1.1 µM | – | – | – | 0.75 µM | – | – | – | 0.9 µM | – | – | 0.48 µM | – | – | – | 2 µM | 9.2 µM | 2.5 µM | 0.95 µM |
| NC1=N/C(=C\c2ccc(O)c(O)c2)C(=O)N1 [PAC13, polyandrocarpamine B] | – | 0.96 µM | – | – | – | 0.59 µM | – | – | – | 0.68 µM | – | – | 0.38 µM | – | – | – | 1.8 µM | 10 µM | 2.42 µM | 0.91 µM |
